Experimental data as given in the METLIN SMRT retention time set (Domingo-Almenara et al. 2019).

Experiment: gradient 5% acetonitrile 3 min, to 50% in 2 min, to 85% in 15 min, held 3 min, 100 µL/min
Conditions: column: Zorbax Extend-C18 2.1 x 50 mm; eluents: water / acetonitrile, 0.1% formic acid
How it was run: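 Retention times of pure standards were taken from adduct peaks that were selected by computer and manually inspected. Over 3 months, mixtures of ~100 molecules were run by HPLC–quadrupole time-of-flight mass spectrometry in positive and negative ionization mode. The Zorbax Extend-C18 column (2.1 × 50 mm, 1.8 μm) ran at 100 μL/min in water and acetonitrile, each containing 0.1% formic acid, with 40 μL dead volume and 900 μL dwell volume.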

Row | Structure (SMILES) | RP-LC retention time [s]
1 | CN(CC(=O)N1CCN(c2ccccc2F)CC1)S(=O)(=O)c1ccc2c(c1)CCCC(=O)N2 | 768
2 | Cc1nn(CC(=O)N2CCC(C)CC2)c(=O)c2nc(-c3ccccc3)sc12 | 872
3 | COC(=O)C1=CN(C2CC2)c2cc(N3CCC4(CC3)OCCO4)c(F)cc2S1(=O)=O | 806
4 | CCCC(=O)Nc1ccc(CCc2nc3ccc(C(=O)NCCOC)cc3[nH]2)cc1 | 599
5 | Cc1ccnc(N2CCC(C(=O)NCc3ccc(CN4CCCCCC4)o3)CC2)n1 | 567
6 | O=C(NCc1cccc(Cl)c1)c1ccc2c(c1)ncn2CCN1CCCC1 | 601
7 | COc1ccc(CC(=O)N2CCC3(C2)C(=O)N(C)c2ccccc23)cc1 (stereo unspecified) | 782
8 | CCCn1ccc2oc(C)c(C(=O)N3CCN(c4ccc(OC)cc4)CC3)c2c1=O | 707
9 | CO[C@H]1C(=O)N(C2CCN(S(=O)(=O)c3cccs3)CC2)[C@H]1c1ccncc1 | 619
10 | CCOc1ccc(C2Cn3nnc(-c4nc(-c5cccc(Cl)c5)no4)c3CO2)cc1 (stereo unspecified) | 1320
11 | CCc1ccccc1NC(=O)C1(C)Oc2cccnc2N(C)C1=O (stereo unspecified) | 814
12 | CCc1noc(-c2ccc(-n3ncc(C(=O)N4CCC(C)CC4)c3C)nc2)n1 | 1020
13 | CC(C)N1CCN(c2ncccc2-c2nnc(-c3ccc(Cl)cc3)o2)CC1 | 670
14 | Cc1nn(-c2ccccc2)c(C)c1S(=O)(=O)N1CCC(C(=O)NCc2ccccc2Cl)CC1 | 963
15 | O=C(Nc1cc(-c2ccsc2)no1)C1CCCC1 | 918
16 | COc1cccc(CNC(=O)C2(C)CCCN(C(=O)NCCc3ccccc3)C2)c1 (stereo unspecified) | 855
17 | Cc1nc(CNS(=O)(=O)c2cc([N+](=O)[O-])ccc2C)cs1 | 716
18 | COc1ccc(-c2csc3c(=O)n(CC(=O)NC4CCCC4)cnc23)cc1 | 832
19 | CCOC(=O)c1ccc(NC(=O)CSc2nnc(-c3cccn(CC)c3=O)n2C)cc1 | 794
20 | CC1=C(c2ccc(C)cc2)S(=O)(=O)N=C1N1CCCN(C(=O)C(C)(C)C)CC1 | 858
21 | O=C(Nc1ccnn1Cc1ccco1)c1cc(=O)c2cc(Cl)ccc2o1 | 830
22 | O=C(Nc1cc(-c2ccccn2)no1)c1ccccc1F | 774

Row | Structure (SMILES) | RP-LC retention time [s]
23 | CCCN1C(=O)c2[nH]nc(-c3cccc(OC)c3)c2C1c1cccnc1 (stereo unspecified) | 669
24 | O=C([C@@H]1C[C@H](F)CN1C(=O)Nc1cccc(C(F)(F)F)c1)N1CCOCC1 | 698
25 | C=CCN1C(=O)COc2ccc(-c3csc(NC(=O)C4CC4)n3)cc21 | 842
26 | Cc1ccccc1NC(=O)C1CC(=O)N(c2ccc3c(c2)CCN3C(=O)C2CCC2)C1 (stereo unspecified) | 803
27 | CCCN1C(=O)COc2ccc(-c3noc(-c4ccc(F)c(F)c4)n3)cc21 | 1270
28 | CC(C)n1ccnc(N2CCOCC2)c1=O | 601
29 | CCS(=O)(=O)N1CC(=O)N(c2cccc(C)c2C)C(C)(C(=O)NCc2ccc(F)cc2)C1 (stereo unspecified) | 848
30 | O=C(Cn1cccc1-c1nc(-c2ccc(F)cc2)no1)Nc1ccc2c(c1)OCCO2 | 944
31 | CN(CC(=O)NC1CCCC1)S(=O)(=O)c1c[nH]c(C(=O)N2CCCC2)c1 | 686
32 | CCN1CCN(c2cc(-c3ccc(F)cc3)c3c(n2)CCCCCC3)CC1 | 765
33 | CCN1CCN(CCCNC(=O)CN2C(=O)C3CCCCN3c3ccc(C(=O)N(C)C)cc32)CC1 (stereo unspecified) | 579
34 | CN(Cc1nc2ccccc2n1CC(=O)N1CCOCC1)C(=O)c1ccco1 | 587
35 | O=S(=O)(NCC(O)c1ccc(C(F)(F)F)cc1)c1ccc2c(c1)CCCC2 (stereo unspecified) | 984
36 | Cc1nc2ccccc2c(=O)n1-c1ccc(NC(=O)c2cnccn2)cc1 | 682
37 | O=C(NCc1cccnc1)C1CC(=O)N(CCc2c[nH]c3ccc(Cl)cc23)C1 (stereo unspecified) | 613
38 | O=C(CCn1cnc2cc(-c3noc(-c4ccccc4F)n3)ccc21)N1CCCC1 | 730
39 | Cc1nnc(-c2ccc3c(c2)OCO3)o1 | 706
40 | CC1CCN(S(=O)(=O)c2ccc3nc(N4CCN(c5ccccn5)CC4)ccc3c2)CC1 | 691
41 | CCOc1cccc(-c2noc(Cn3ccn(-c4ccc(Cl)cc4)c(=O)c3=O)n2)c1 | 895
42 | O=C(NC1(c2nc(-c3ccncc3)no2)CCCCC1)c1ccccn1 | 885
43 | Cc1ccc(NC(=O)Cn2nc(C)cc2C(=O)Nc2ccc3c(c2)OCO3)cc1 | 866
44 | COc1cc(OC)cc(C(=O)N2CCC3(CC2)NC(=O)c2cc(Cl)ccc2N3C)c1 | 826

Row | Structure (SMILES) | RP-LC retention time [s]
45 | Cc1nn(CC(=O)NCCN2CCOCC2)c(=O)c2nc(-c3ccccc3)sc12 | 610
46 | CCOC(=O)c1noc2nc(C)nc(Nc3ccc(CN4CCN(CC)CC4)cc3)c12 | 612
47 | CC(=O)c1cccc(NC(=O)c2cnc(-c3ccccc3)nc2-c2ccncc2)c1 | 800
48 | O=C1CC(c2ccc(O)cc2)Oc2cc(O)cc(O)c21 (stereo unspecified) | 784
49 | Cc1cnc(C(=O)N2CCC3(CCC3O)CC2)cn1 (stereo unspecified) | 605
50 | CS(=O)(=O)c1ccc(-c2cnc(N)c(C(=O)Nc3ccccc3)n2)cc1 | 937
51 | c1ccc2c(-c3nc(C4CC4)no3)nnc(NC3CCCC3)c2c1 | 725
52 | COc1ccc(Cl)cc1NC(=O)Cc1csc2nc(-c3ccc(C)c(C)c3)cn12 | 985
53 | CCOc1ccc(NC(=O)Cn2ccc3ccc(-c4nnc(C)o4)cc32)cc1 | 804
54 | O=c1n(Cc2ccc(F)cc2)nc2c(S(=O)(=O)N3CCc4ccccc4C3)cccn12 | 938
55 | O=S(=O)(c1cccc2nsnc12)N1CCc2nc(-c3ccc(F)cc3)ncc2C1 | 1040
56 | CCOc1ccc(-c2cc3n(n2)CCCN(C(=O)c2cc(C)n(C)n2)C3)cc1 | 698
57 | COc1ccc(C2CC(=O)N(c3ccc(F)cc3)C(=O)C2)cc1OC | 801
58 | O=c1ccc(-c2ccc(F)cc2)nn1CCc1nc(-c2ccccc2Br)no1 | 1010
59 | Cc1ccc(-c2cc(C(=O)O)c3ccc(Br)cc3n2)cc1C | 1240
60 | COc1ccc(-c2nc3n(c2C(=O)Nc2nc(-c4ccc(C)cc4)cs2)CCS3(=O)=O)cc1 | 1060
61 | CCOC(=O)c1[nH]c(C)c(CCC(=O)N2CCC(C(=O)NCCCN3CCCC3=O)CC2)c1C | 626
62 | O=C(Nc1ccccc1Cl)Nc1c(-c2ccc(F)cc2)nc2ccccn12 | 695
63 | CCCNC(=O)c1n[nH]c2c1CCCCCC2 | 776
64 | COc1ccc(-c2noc(CN3C(=O)COc4cc(C)ccc43)n2)cc1OC | 954
65 | CCc1ccc(S(=O)(=O)NCCc2csc(-c3cccnc3)n2)s1 | 734
66 | CC(=O)Nc1ccc(S(=O)(=O)N2CC=C(c3cn(C(C)C)c4ncccc34)CC2)cc1 | 854
